Laboratory results from BindingDB's records for doi:10.1021/jm00077a017 (University of Rhode Island, 1994).
pKi: −log10 of the molar value.

What was measured:
[1] = biological target: Adenosine deaminase 2 (CECR1) (Homo sapiens) (UniProt Q9NZK5); assay: Tested for inhibition against human plasma adenosine deaminase (ADA2)
[2] = biological target: Adenosine deaminase 2 (CECR1) (Homo sapiens) (UniProt Q9NZK5); assay: Tested for binding constant against adenosine deaminase (ADA2) in human plasma

Chain of Adenosine deaminase 2 (CECR1) (Homo sapiens) (Q9NZK5 whole entry, looked up): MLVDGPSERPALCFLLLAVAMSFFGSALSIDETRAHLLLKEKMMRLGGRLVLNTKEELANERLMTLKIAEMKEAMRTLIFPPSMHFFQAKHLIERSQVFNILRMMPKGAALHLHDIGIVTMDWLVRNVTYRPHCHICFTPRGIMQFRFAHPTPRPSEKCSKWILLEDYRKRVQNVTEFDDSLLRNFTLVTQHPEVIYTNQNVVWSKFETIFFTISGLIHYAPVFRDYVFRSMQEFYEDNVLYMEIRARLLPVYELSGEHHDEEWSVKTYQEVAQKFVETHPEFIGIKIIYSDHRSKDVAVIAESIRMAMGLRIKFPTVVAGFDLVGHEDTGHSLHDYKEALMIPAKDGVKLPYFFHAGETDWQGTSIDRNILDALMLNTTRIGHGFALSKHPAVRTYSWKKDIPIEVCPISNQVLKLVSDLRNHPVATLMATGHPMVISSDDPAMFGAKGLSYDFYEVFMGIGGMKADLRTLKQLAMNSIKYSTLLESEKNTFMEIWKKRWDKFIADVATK

Row | pKi [1] | pKi [2] | Compound
1 | 2.85 |  | Nc1nncc2c1nnn2C1O[C@H](CO)[C@@H](O)[C@H]1O (some centres not stated)
2 |  | 2.66 | Nc1ncnc2c1ncn2[C@@H]1O[C@H](CO)[C@@H](O)[C@H]1O [[U-14C]adenosine]
